Test results published in paper PMC8843160 (Drug Delivery, 2022).
Converted amounts (≈) assume the structure as drawn. Read-outs that look alike come from different tables or passages of the source.

Tests used:
[1] = Equilibrium solubility experiments; format: physicochemical
Procedure: The obtained complexes were vibrated by ultrasonic for 10 min then continuously shaken in a water bath at 32 °C until equilibrium.
(§1) The samples were determined by an LC-20A HPLC system (SHIMADZU, Kyoto, Japan). The separation was achieved on an InertSustain C18 column (4.6 mm × 250 mm, 5 µm, SHIMADZU, Kyoto, Japan) with the flow rate keeping at 1.0 mL/min, the column temperature maintaining at 40 °C and mobile phase consisting of methanol:water (25:75, v/v) with 0.4% phosphoric acid in water. Injection volume for each run was 50 μL, and detection wavelength was 254 nm.

[2] = In vitro skin permeation, Franz diffusion cells; format: in vitro ADME, porcine; details: donor saturated solution in isopropyl myristate; for Q24h, the cumulative amount of drug permeated per unit area at 24 h / Tlag / Jss, the steady-state flux: porcine ear skin, receptor PBS pH 7.4, 32 °C; for Tlag: linear portion of permeation curve extrapolated to the abscissa; for Jss, the steady-state flux: slope of the linear portion of the plots
From the text: According to the description in our previous report (Xu et al., [2011]), the porcine ears immediately obtained from the killed pig were supplied by local slaughterhouse (Xiangtan, China). The hair of porcine ears was carefully cut off with animal hair clippers. Then, skin grafting knife (Medical Equipment Factory of Shanghai Medical Instruments Co., Ltd., Shanghai, China) was employed to separate the skin and subcutaneous fat, and the skin of thickness in range of 0.6 ± 0.1 mm was obtained. The skin was kept frozen at −20 °C no more than 2 weeks.
Two-chamber Franz diffusion cells (receiver volume of 6.5 mL, effective diffusion area of 2.8 cm^2) were used for the in vitro transdermal experiments. The prepared skin was placed between the cell halves with the SC facing the donor cell. The receptor compartment was filled with phosphate buffered saline (pH 7.4), which was put in a water bath at 32 ± 0.5 °C and stirred with a magnetic bar at 300 rpm. The saturated solution of DCN and its ion-pair compounds in isopropyl myristate was filled in the donor cell, and a glass sheet was employed to cover the supply chamber during the in vitro permeation experiments. Since the experiment started, 1.0 mL sample was withdrawn from the receptor compartment at predetermined time interval 2, 4, 6, 8, 10, 12, 14, and 24 h. Subsequently, the equal volume of fresh PBS was replenished. These investigations were performed with different individual skin at least in triplicate.
as §1

[3] = Apparent distribution coefficient (Log P), shake-flask method; format: physicochemical; details: n-octanol/distilled water, 48 h, 32 °C
Procedure: as §1

[4] = aqueous buffer, thermodynamic from solid, PBS pH 7.4, 32 °C, read-out: Equilibrium solubility PBS (pH 7.4)
[5] = thermodynamic from solid, isopropyl myristate, 32 °C, read-out: Equilibrium solubility IPM
[6] = thermodynamic from solid, water, 32 °C, read-out: Equilibrium solubility Water

Row | SMILES | Q24h, the cumulative amount of drug permeated per unit area at 24 h [2] [µg/cm^2] | Tlag [2] [h] | Jss, the steady-state flux [2] [µg/cm^2⋅h^–1] | further results
1 | CC(=O)Oc1cccc2c1C(=O)c1c(OC(C)=O)cc(C(=O)O)cc1C2=O [DCN, Diacerein, reference compound] | 1.83 ± 0.22 | 2.68 ± 0.78 | 0.06 ± 0.01 | solubility thermodynamic at 48 h [1, 4]: 1442 ± 5.58 µg/mL (≈ 3910 µM); solubility thermodynamic at 48 h [1, 5]: 83.6 ± 18.1 µg/mL (≈ 227 µM); solubility thermodynamic at 48 h [1, 6]: 8.29 ± 0.27 µg/mL (≈ 22.5 µM); solubility thermodynamic at 48 h ([1]; water, 32 °C, read-out: Equilibrium solubility Water): ≤ 10 µg/mL
2 | CC(=O)Oc1cccc2c1C(=O)c1c(OC(C)=O)cc(C(=O)O)cc1C2=O.CCNCC [DCN-Dea] | 2.82 ± 0.49 | 4.12 ± 1.14 | 0.10 ± 0.01 | 
3 | CC(=O)Oc1cccc2c1C(=O)c1c(OC(C)=O)cc(C(=O)O)cc1C2=O.OCCNCCO [DCN-Deta] | 4.03 ± 0.71 | 2.16 ± 0.55 | 0.11 ± 0.02 | 
4 | CC(=O)Oc1cccc2c1C(=O)c1c(OC(C)=O)cc(C(=O)O)cc1C2=O.CCCCCCN [DCN-N6] | 3.86 ± 0.21 | 1.52 ± 0.36 | 0.10 ± 0.02 | 
5 | CC(=O)Oc1cccc2c1C(=O)c1c(OC(C)=O)cc(C(=O)O)cc1C2=O.CCCCCCCCN [DCN-N8] | 4.30 ± 0.63 | 2.15 ± 0.22 | 0.14 ± 0.03 | 
6 | CC(=O)Oc1cccc2c1C(=O)c1c(OC(C)=O)cc(C(=O)O)cc1C2=O.CCCCCCCCCCN [DCN-N10] | 6.41 ± 0.23 | 1.38 ± 0.14 | 0.20 ± 0.03 | 
7 | CC(=O)Oc1cccc2c1C(=O)c1c(OC(C)=O)cc(C(=O)O)cc1C2=O.CCCCCCCCCCCCN [DCN-N12] |  | 2.50 ± 0.18 | 0.34 ± 0.02 | 
8 | CC(=O)Oc1cccc2c1C(=O)c1c(OC(C)=O)cc(C(=O)O)cc1C2=O.CCCCCCCCCCCCCCN [DCN-N14] | 7.03 ± 1.56 | 1.31 ± 0.11 | 0.24 ± 0.05 | 
9 | CC(=O)Oc1cccc2c1C(=O)c1c(OC(C)=O)cc(C(=O)O)cc1C2=O.CCCCCCCCCCCCCCCCN [DCN-N16] | 6.44 ± 0.36 | 1.28 ± 0.23 | 0.22 ± 0.01 | 
10 | CC(=O)Oc1cccc2c1C(=O)c1c(OC(C)=O)cc(C(=O)O)cc1C2=O.CCCCCCCCCCCCCCCCCCN [DCN-N18] | 5.97 ± 1.25 | 1.42 ± 0.52 | 0.20 ± 0.01 | 
11 | CC(=O)Oc1cccc2c1C(=O)c1c(OC(C)=O)cc(C(=O)O)cc1C2=O.CCN(CC)CC [DCN-Tea] | 2.85 ± 0.64 | 3.39 ± 0.55 | 0.11 ± 0.04 | solubility thermodynamic at 48 h [1, 4]: 8188 ± 44.4 µg/mL; solubility thermodynamic at 48 h [1, 5]: 1385 ± 13.7 µg/mL; solubility thermodynamic at 48 h [1, 6]: 3233 ± 12.6 µg/mL
12 | CC(=O)Oc1cccc2c1C(=O)c1c(OC(C)=O)cc(C(=O)O)cc1C2=O.OCCN(CCO)CCO [DCN-Teta] | 7.89 ± 0.38 | 1.52 ± 0.48 | 0.17 ± 0.05 | transdermal permeation rate (comparison in words) ([2]; porcine ear skin in vitro): highest transdermal permeation rate
13 | CC(=O)Oc1cccc2c1C(=O)c1c(OC(C)=O)cc(C(=O)O)cc1C2=O.CCN [DCN-ea] | 2.17 ± 0.30 | 1.79 ± 0.66 | 0.08 ± 0.02 | Log P [3]: –0.39 ± 0.007; Equilibrium solubility PBS (pH 7.4) ([1]; PBS pH 7.4, 32 °C, 48 h): 12155.69 ± 81.21 μg/mL; Equilibrium solubility IPM ([1]; isopropyl myristate, 32 °C, 48 h): 92.80 ± 14.10 µg/mL; Equilibrium solubility Water ([1]; water, 32 °C, 48 h): 6928.52 ± 4.80 µg/mL
14 | CC(=O)Oc1cccc2c1C(=O)c1c(OC(C)=O)cc(C(=O)O)cc1C2=O.NCCO [DCN-eta] | 3.04 ± 0.67 | 1.41 ± 0.56 | 0.09 ± 0.04 | solubility thermodynamic at 48 h [1, 4]: 6100 ± 24.7 µg/mL; solubility thermodynamic at 48 h [1, 5]: 121.6 ± 1.2 µg/mL; solubility thermodynamic at 48 h [1, 6]: 3060 ± 35.8 µg/mL
